{"source": "patent US20230346791A1", "about": "“ATR INHIBITORS FOR THE TREATMENT OF CANCER” (AstraZeneca AB, priority 2020, published 2023)", "conditions": "for dose-limiting toxicity (DLT): cohort of n=6 evaluable patients", "note": "Where two headings read alike, the source gives them in different places.", "protocol": "Overall Study Design: The study consisted of two parts, each evaluating the safety and tolerability of AZD6738 when given in combination with paclitaxel. An oral formulation of AZD6738 was used. The first part (Part A) was in combination with paclitaxel; the starting dose of 40 mg AZD6738 OD was escalated to reach a maximum tolerated dose in patients with advanced solid malignancies, as defined by dose-limiting toxicity. […] We made the number and doses of these cohorts flexible so that we could make adjustment as the PK data emerged. […] Dose escalations were conducted in each cohort independently; however, number and doses of the cohorts were to be subject to change as the PK data emerged.\nPart A: We conducted a phase I trial for determining maximal tolerate dose (MTD) of AZD6738 when given in combination with fixed dose of paclitaxel in patients with refractory cancer. We used a rolling 6 design in this PART A. Treatment schedule was as follows. Start regimen (every 4 weeks): 40 mg OD dosing of AZD6738, 3 weeks on/ 1 week off; paclitaxel 80 mg/m2 on day 1, 8, 15 This part was in combination with paclitaxel of standard dose; starting dose of 40 mg AZD6738 OD was escalated to reach a maximum tolerated dose in metastatic solid cancer patients. Each cycle was composed of 4 weeks. The decision to dose escalate was to be made upon the assessment of the safety and tolerability data collected up until the time of study drug administration on Cycle 2, Day 1. This DLT assessment period was selected as the major toxicities leading to cessation of dose escalation in such studies (haematological, gastrointestinal, liver enzymes) were anticipated to present within this duration. Doses and/or schedules of AZD6738 were to be defined by the SRC. The cohort size of at least 3 and up to 6 patients (‘rolling six design’) was employed to improve the rate of accrual of patients to cohorts close to the presumed therapeutic dose by reducing the need for late replacement of patients who become non-evaluable during the DLT assessment period, whilst not compromising collection of safety data. […]", "data": [{"smiles": "C[C@@H]1COCCN1c1cc(C2([S@](C)(=N)=O)CC2)nc(-c2cc[nH]c3nccc2-3)n1", "note": "[AZD6738, 4-{4-[(3R)-3-methylmorpholin-4-yl]-6-[1-((R)-S-methylsulfonimidoyl)cyclopropyl]pyrimidin-2-yl}-1H-pyrrolo[2,3-b]pyridine]", "values": [{"measurement": "dose-limiting toxicity (DLT)", "setting": "AZD6738 160 mg BD days 1-14 with paclitaxel", "result": "One dose-limiting toxicity (DLT) of neutropenic fever"}, {"measurement": "dose-limiting toxicity (DLT)", "setting": "AZD6738 240 mg BD days 1-14 with paclitaxel", "result": "One dose-limiting toxicity (DLT) of neutropenic fever"}, {"measurement": "maximum tolerated dose of AZD6738", "setting": "days 1-14 of 28-day cycle, with paclitaxel 80 mg/m2, per protocol", "result": 240, "unit": "mg BID"}]}]}
